Like-named read-outs stand apart in the source and are kept apart here.
How the values were obtained:
Kv2.2 = target: T1, Kv2.2 (UniProt Q92953); conditions: cited from earlier work; for IC50: read-out: IC50, inhibition of Kv2.2 current
T1 sequence (Q92953 1-911): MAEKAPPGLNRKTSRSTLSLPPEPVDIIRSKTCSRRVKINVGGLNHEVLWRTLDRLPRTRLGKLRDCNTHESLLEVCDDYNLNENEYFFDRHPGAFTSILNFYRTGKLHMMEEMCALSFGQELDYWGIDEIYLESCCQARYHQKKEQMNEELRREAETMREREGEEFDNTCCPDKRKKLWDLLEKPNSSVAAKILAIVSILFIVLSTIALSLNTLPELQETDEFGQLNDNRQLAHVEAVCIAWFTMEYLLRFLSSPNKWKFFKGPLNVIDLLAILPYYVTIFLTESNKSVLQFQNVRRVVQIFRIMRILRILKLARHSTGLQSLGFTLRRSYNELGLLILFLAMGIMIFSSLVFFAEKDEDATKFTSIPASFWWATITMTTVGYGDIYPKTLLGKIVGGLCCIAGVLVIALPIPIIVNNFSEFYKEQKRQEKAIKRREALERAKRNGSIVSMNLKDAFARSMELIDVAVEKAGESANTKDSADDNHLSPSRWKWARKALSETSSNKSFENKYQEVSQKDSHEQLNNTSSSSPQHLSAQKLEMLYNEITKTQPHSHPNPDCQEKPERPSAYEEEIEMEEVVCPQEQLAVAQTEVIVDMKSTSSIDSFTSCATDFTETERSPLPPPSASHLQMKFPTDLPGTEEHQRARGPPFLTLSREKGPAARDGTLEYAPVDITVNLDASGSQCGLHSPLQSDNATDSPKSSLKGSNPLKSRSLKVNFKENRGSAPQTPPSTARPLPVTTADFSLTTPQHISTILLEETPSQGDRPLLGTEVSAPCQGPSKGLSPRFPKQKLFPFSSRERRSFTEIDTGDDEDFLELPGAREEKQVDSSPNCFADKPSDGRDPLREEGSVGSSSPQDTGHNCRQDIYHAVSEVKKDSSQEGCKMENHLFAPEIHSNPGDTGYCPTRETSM

[1] = test system: slow component of the delayed rectifier current in native colonic myocytes; conditions: 1 microM; cited from earlier work
Kv2.1/Kv9.1 = conditions: cited from earlier work
Kv2.1 = Kv2.1 alone; cited from earlier work
[2] = test system: nigral dopaminergic neurons; conditions: tissue culture paradigms; cited from earlier work
[3] = test system: nigral dopaminergic neurons; conditions: gel foam implants in the striatum; cited from earlier work
[4] = test system: cortical or hippocampal neurons; conditions: in vitro; cited from earlier work
Human lung fibroblasts = assay: Human lung fibroblast growth, Alamar Blue; format: cell-based; conditions: 3 days in basal medium
Experimental: Human lung fibroblasts are obtained from Clonetics (San Diego, Calif.) and maintained in growth media from Clonetics. Dermal microvascular endothelial cells are obtained from Cell Applications (San Diego, Calif.). For proliferation assays, the human lung fibroblasts and dermal microvascular endothelial cells can be cultured at 5,000 cells/well in a 96-well plate for one day in growth medium. The cells are then incubated for one day in 0.1% BSA basal medium. After replacing the medium with fresh 0.1% BSA medium, the cells are incubated with the test proteins for 3 days. Alamar Blue (Alamar Biosciences, Sacramento, Calif.) is added to each well to a final concentration of 10%. The cells are incubated for 4 hr. Cell viability is measured by reading in a CytoFluor fluorescence reader. For the PGE2 assays, the human lung fibroblasts are cultured at 5,000 cells/well in a 96-well plate for one day. […]

[5] = Xenopus oocytes injected with Kv2.2 mRNA

C=C[C@H]1C[N@@]2CC[C@H]1C[C@H]2[C@H](O)c1ccnc2ccc(OC)cc12 [quinine]
IC50 (Kv2.2; [5]): 13.7 µM
block of delayed rectifier current [1]: preferentially block the slow component of the delayed rectifier current

CC[N+](CC)(CC)CC [tetraethylammonium]
IC50 (Kv2.2): 2600 µM
effect on biphasic voltage-dependence of currents (Kv2.1/Kv9.1; 20 mM): eliminate the biphasic voltage-dependence
sensitivity of currents to blocker (Kv2.1/Kv9.1; Kv2.1/Kv9.1): sensitive
sensitivity of currents to blocker (Kv2.1): sensitive

charybdotoxin
sensitivity of Kv2.2 current (Kv2.2; [5]): insensitive

FGF-2: FGF-2 (basic FGF), fibroblast growth factor
activity towards nigral dopaminergic neurons [2]: trophic activity
protection of nigral dopaminergic neurons from MPTP toxicity [3]: near complete protection
neurite outgrowth [4]: increases
neuron survival [4]: increases
concentration showing stimulation of fibroblast growth (Human lung fibroblasts): 10 to 2500 ng/mL

Source: US20030152953A1, “Polynucleotide encoding a novel human potassium channel alpha-subunit, K+alphaM2” (priority 2001, published 2003)
